According to patent US8236858B2, “Substituted aryl-indole compounds and their kynurenine/kynuramine-like metabolites as therapeutic agents” (Neurim Pharmaceuticals (1991) Ltd., priority 2006, dated 2012):

Legend:
[1] = test system: NMDA-activated currents; experiment: Electrophysiological characterisation of NMDA-activated currents in freshly isolated hippocampal neurones (whole-cell patch clamp); format: cell-based, Wistar rats; conditions: for % Inhibition Peak Current / % Inhibition Steady State Current: 1 μM substance, 10 μM glycine, 300 μM L-aspartate, holding potential −70 mV, mean of at least 4 cells; for blocking activity on NMDA-activated currents (in words): summary of Table 3, 1 μM
Procedure: Isolation of hippocampal neurons: Wistar rats (12-14 days) were decapitated without anesthesia and the hippocampus was removed. It was manually cut into slices (0.2-0.4 mm), in a solution containing (mM): 150 NaCl; 5 KCL; 1.25 NaH2PO4; 2 CaCl2; 2 MgCl2; 26 NaHCO3; 20 glucose. Slices were preincubated in this solution for 30 min at room temperature. The enzymatic treatment proceeded in the same solution with lower Ca^2+ concentration (0.5 mm) containing 0.4 mg/ml protease from aspergillus oryzae. The incubation in the enzyme solution proceeded at 32° C. within 10 min. Slices were kept subsequently in enzyme-free solution containing normal Ca^2±concentration and used within 6-8 h for obtaining isolated neurons. Throughout the entire procedure the solutions were continuously saturated with a 95% O2 and 5% CO2 gas mixture to maintain pH of 7.4. For cell dissociation the slice was transferred into the extracellular solution containing (mM): 150 NaCl; 5 KCl; 2 CaCl2; 10 n-2-hydroxyethylpiperazine-n′-2-ethanesulphonic acid (Hepes); pH adjusted with NaOH to 7.4. Single cells were isolated from CA and CA3 zones of hippocampal slices by vibrodissociation method. […] After isolation they were usually suitable for the recording for 1-2 h.
Salines and chemicals: The contents of the extracellular solution was as follows (in mM): 130 NaCl, 5KCl, 2CaCl2, 20 n-2-hydroxyethylpiperazine-n′-2-ethansulfonic acid (Hepes); 0.1 μm TTX, 10 μm glycine, […] 1-aspartate; pH was adjusted with NaOH to 7.4.
The contents of the intracellular solution were as follows (in mM): 110 CsF, 20 Tris-HCl (pH=7.2). L-aspartate and glycine solutions were prepared on the day of experiment.
The tested substances were dissolved in DMSO.
Current recording and data analysis: The drug-containing solutions were applied by the fast “concentration clamp” method using “jumping table” set-up. The currents were recorded with patch clamp technique in the whole-cell configuration. Recording of the currents was performed using EPC-7 L/M patch-clamp amplifier.
NMDA-activated currents: The currents were filtered at 3 kHz (three-pole active Bessel filter) digitally sampled at the rate 6000 μs per point for NMDA activated currents. NMDA-induced transmembrane currents were measured in the presence of 10 μM glycine and 300 μM L-aspartate in the control and test solutions. The currents were recorded at holding potential −70 mV.
Calculations: The inhibition of current at 1 μM of the substance was averaged at least for 4 cells. The effect of substance was measured as the mean ratio I/Io where I was the current under the action of substance and Io was the current in control conditions.

[2] = test system: MPTP-treated mice; experiment: Anti-Parkinsonian activity in MPTP-treated mice with a sub threshold dose of L-DOPA (motor activity counts); format: in vivo, C57 BL/6 mice; conditions: for reversal of the motor deficits of MPTP-treated mice (in words): 3 mg/kg, combined with a sub-threshold (inactive) dose of L-Dopa; for LOCOMOTION / REARING / TOTAL ACTIVITY: MPTP-treated mice (2×40 mg/kg s.c.), compound 3 mg/kg orally + 5 mg/kg L-Dopa s.c., counts with Vehicle (no MPTP) = 100%
Procedure: Animals: six month old male C57 BL/6 mice, weighing 22-25 g were used. Following arrival at the laboratory, the mice were allowed to acclimatize for two weeks in a room with controlled temperature (21±1° C.), and a constant light-dark schedule (12 hr on/12 hr off, lights on between 06.00 and 18.00 hrs). Free access to food and water was maintained throughout. They were housed in groups of 12 animals and tested only during the hours of light (08.00-15.00 hrs). All testing was performed in a normally lighted room.
Behavioural measurements and apparatus: An automated device, consisting of macrolon rodent test cages (40×25×15 cm), each placed within two series of infra-red beams (at two different heights, one low and one high, 2 and 8 cm, respectively, above the surface of the sawdust, 1 cm deep), was used to measure spontaneous and/or drug-induced motor activity of 1-methyl 4-phenyl 1,2,3,6-tetrahydropyridine (MPTP) and control mice. The following parameters were measured: LOCOMOTION was measured by the low grid of infrared beams. Counts were registered only when the mouse in the horizontal plane, ambulating around the test-cage. REARING was registered throughout the time when at least one high level beam was interrupted, i.e. the number of counts registered was proportional to the amount of time spent rearing. TOTAL ACTIVITY was measured by a sensor (a pick-up similar to a gramophone needle, mounted on a lever with a counterweight) with which the test cage was constantly in contact. The sensor registered all types of vibration received from the test cage, such as those produced both by locomotion and rearing as well as shaking, tremors, scratching and grooming.
Behavioral measurements (locomotion, rearing and total activity): Twelve days after MPTP injections (2×40 mg/kg, s.c., 24 hr interval), the mice were administered orally with the different compounds at 3 mg/kg or vehicle (0.1% Tween-80 in 1% methylcellulose) and immediately thereafter placed in the activity test chambers and their motor behaviors were monitored for 60 min. After 60 min, the mice were injected with 5 mg/kg L-Dopa (s.c) and then replaced in the test chamber and activity measurements maintained for an additional 300 min.
Table 2 presents the locomotion, rearing and total activity counts of MPTP-treated and control mice administered either tested substances or vehicle administered with a sub threshold dose of L-Dopa.

[3] = molecular target: T1, GSK3β (Homo sapiens, UniProt P49841); experiment: Evaluation of GSK3β activity: inhibition of purified GSK3β, [γ-32P]ATP / GS-2 peptide filter assay; format: biochemical; conditions: for IC50: purified GSK3β expressed in Sf9 cells, 15 μM ATP, GS-2 peptide substrate, 30 min at 30° C.; for inhibiting activity on GSK3β activity (in words): summary of Table 1
T1 construct: made in house; host or cells: insect Sf9 cells
T1 sequence (P49841 whole entry, species assumed): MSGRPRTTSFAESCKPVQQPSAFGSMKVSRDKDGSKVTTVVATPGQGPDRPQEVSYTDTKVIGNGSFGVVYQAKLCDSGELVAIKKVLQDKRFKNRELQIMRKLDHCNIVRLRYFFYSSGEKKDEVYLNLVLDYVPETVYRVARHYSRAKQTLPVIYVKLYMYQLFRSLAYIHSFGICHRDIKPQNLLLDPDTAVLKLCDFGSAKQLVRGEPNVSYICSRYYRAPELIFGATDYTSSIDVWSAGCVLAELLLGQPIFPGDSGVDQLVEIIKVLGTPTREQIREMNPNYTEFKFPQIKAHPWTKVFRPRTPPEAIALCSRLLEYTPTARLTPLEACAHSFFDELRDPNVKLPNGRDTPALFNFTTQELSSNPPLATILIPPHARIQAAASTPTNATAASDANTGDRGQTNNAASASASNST
Procedure: Compounds were evaluated for inhibition against purified GSK3β. GSK3β was expressed in and purified from insect Sf9 cells. Compounds (10 μM) were assayed; following a 1/100 dilution of the enzyme in 1 mg/ml BSA, 10 mM DTT, with 5 μl of 40 μM GS-2 peptide as a substrate, in a buffer, in the presence of 15 μM [γ-^32P]ATP (3000 Ci/mmol; 1 mCi/ml) in a final volume of 30 μl. After 30-min incubation at 30° C., 25-μl aliquots of supernatant were spotted onto 2.5×3 cm pieces of Whatman P81 phosphocellulose paper, and, 20 s later, the filters were washed five times (for at least 5 min each time) in a solution of 10 ml of phosphoric acid/liter of water. The wet filters were counted in the presence of 1 ml of scintillation fluid.

SMILES	IC50 [3]	inhibiting activity on GSK3β activity (in words) [3]	% Inhibition Peak Current [1]	% Inhibition Steady State Current [1]	blocking activity on NMDA-activated currents (in words) [1]	reversal of the motor deficits of MPTP-treated mice (in words) [2]	LOCOMOTION [2]	REARING [2]	TOTAL ACTIVITY [2]
O=[N+]([O-])c1ccccc1NCCc1c[nH]c2ccccc12 [N-(2-Nitrophenyl)-tryptamine]	9.9 µM	significant inhibiting activity	90.93%	66.83%	significant blocking activity	significantly reversed the motor deficits	53%	100%	90%
N#Cc1cc([N+](=O)[O-])ccc1NCCc1c[nH]c2ccccc12 [N-(2-cyano-4-nitrophenyl)-tryptamine]	12.7 µM	significant inhibiting activity	83.1%	82.44%	significant blocking activity	significantly reversed the motor deficits	52%	98%	73%
COc1ccc2[nH]cc(CCNc3ccc(C#N)c(C#N)c3)c2c1 [N-(3,4-dicyanophenyl)-5-methoxytryptamine]	16.8 µM	significant inhibiting activity	84.4%	78.4%	significant blocking activity	–	19%	27%	48%
N#Cc1ccc(NCCc2c[nH]c3ccccc23)cc1C#N [N-(3,4-dicyanophenyl)-tryptamine]	14.8 µM	significant inhibiting activity	93.4%	66.4%	significant blocking activity	–	18%	25%	47%

More lines, in order of falling IC50 [3], values ahead:

IC50 [3]	inhibiting activity on GSK3β activity (in words) [3]	SMILES	% Inhibition Peak Current [1]	% Inhibition Steady State Current [1]	blocking activity on NMDA-activated currents (in words) [1]	reversal of the motor deficits of MPTP-treated mice (in words) [2]	LOCOMOTION [2]	REARING [2]	TOTAL ACTIVITY [2]
21.7 µM	significant inhibiting activity	COc1ccc2[nH]cc(CCNc3ccc(C(=O)O)cc3[N+](=O)[O-])c2c1 [N-(4-Carboxy-2-nitrophenyl)-5-methoxytryptamine]	89.92%	74.14%	significant blocking activity	–	22%	30%	46%
14.1 µM	significant inhibiting activity	COc1ccc2[nH]cc(CCNc3ccccc3[N+](=O)[O-])c2c1 [N-(2-Nitrophenyl)-5-methoxytryptamine]	78%	77.3%	significant blocking activity	significantly reversed the motor deficits	44%	90%	73%
